{"source": "ChEMBL document CHEMBL1201862", "about": "“PubChem BioAssay data set” (2004)", "assay_in_all_cases": "growth of human tumour cells (NCI), 48 h", "key": {"RXF 393": {"system": "RXF 393"}, "CAKI-1": {"system": "CAKI-1"}, "MDA-N": {"system": "MDA-N"}, "K562": {"system": "K562"}, "NCI-H23": {"system": "NCI-H23"}, "HCC 2998": {"system": "HCC 2998"}, "A498": {"system": "A498"}, "786-0": {"system": "786-0"}, "SNB-19": {"system": "SNB-19"}, "NCI/ADR-RES": {"system": "NCI/ADR-RES"}, "A549": {"system": "A549"}, "PC-3": {"system": "PC-3"}, "CCRF-CEM": {"system": "CCRF-CEM"}, "SK-MEL-5": {"system": "SK-MEL-5"}, "EKVX": {"system": "EKVX"}, "TK-10": {"system": "TK-10"}, "U-251": {"system": "U-251"}, "M14": {"system": "M14"}, "SNB-75": {"system": "SNB-75"}, "HCT-15": {"system": "HCT-15"}, "NCI-H460": {"system": "NCI-H460"}, "KM12": {"system": "KM12"}, "SR": {"system": "SR"}, "SK-MEL-28": {"system": "SK-MEL-28"}, "OVCAR-4": {"system": "OVCAR-4"}, "MOLT-4": {"system": "MOLT-4"}, "DU-145": {"system": "DU-145"}, "SN12C": {"system": "SN12C"}, "OVCAR-8": {"system": "OVCAR-8"}, "HCT-116": {"system": "HCT-116"}, "SK-OV-3": {"system": "SK-OV-3"}, "UACC-257": {"system": "UACC-257"}, "NCI-H226": {"system": "NCI-H226"}, "SF-268": {"system": "SF-268"}, "HOP-92": {"system": "HOP-92"}, "MDA-MB-435": {"system": "MDA-MB-435"}, "ACHN": {"system": "ACHN"}, "Hs-578T": {"system": "Hs-578T"}, "Malme-3M": {"system": "Malme-3M"}, "UACC-62": {"system": "UACC-62"}, "SF-295": {"system": "SF-295"}, "MDA-MB-231": {"system": "MDA-MB-231"}, "COLO 205": {"system": "COLO 205"}, "IGROV-1": {"system": "IGROV-1"}, "HOP-62": {"system": "HOP-62"}, "RPMI-8226": {"system": "RPMI-8226"}, "OVCAR-5": {"system": "OVCAR-5"}, "LOX IMVI": {"system": "LOX IMVI"}, "T47D": {"system": "T47D"}, "SK-MEL-2": {"system": "SK-MEL-2"}, "HT-29": {"system": "HT-29"}, "MCF7": {"system": "MCF7"}, "HL-60": {"system": "HL-60"}, "UO-31": {"system": "UO-31"}, "NCI-H522": {"system": "NCI-H522"}}, "note": "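Following 48 hours of exposure in 96-well plates, responses at five concentrations were used to interpolate endpoints linearly. The concentration for 50% growth inhibition is given as GI50.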 Calls of active or inactive are those of the source. No stated cut-off is given here; in the data, active = GI50 up to about 1.1 µM and inactive = higher."}
{"smiles": "O=C1[C@@H](O)[C@@H]2CCCC[C@@]23CCCN13", "values": [{"measurement": "GI50", "setting": "RXF 393", "result": "> 100 µM (inactive)"}, {"measurement": "GI50", "setting": "CAKI-1", "result": "> 100 µM (inactive)"}, {"measurement": "GI50", "setting": "MDA-N", "result": "> 100 µM (inactive)"}, {"measurement": "GI50", "setting": "K562", "result": "> 100 µM (inactive)"}, {"measurement": "GI50", "setting": "NCI-H23", "result": "> 100 µM (inactive)"}, {"measurement": "GI50", "setting": "HCC 2998", "result": "> 100 µM (inactive)"}, {"measurement": "GI50", "setting": "A498", "result": "> 100 µM (inactive)"}, {"measurement": "GI50", "setting": "786-0", "result": "> 100 µM (inactive)"}, {"measurement": "GI50", "setting": "SNB-19", "result": "> 100 µM (inactive)"}, {"measurement": "GI50", "setting": "NCI/ADR-RES", "result": "> 100 µM (inactive)"}, {"measurement": "GI50", "setting": "A549", "result": "> 100 µM (inactive)"}, {"measurement": "GI50", "setting": "PC-3", "result": "> 100 µM (inactive)"}, {"measurement": "GI50", "setting": "CCRF-CEM", "result": "> 100 µM (inactive)"}, {"measurement": "GI50", "setting": "SK-MEL-5", "result": "> 100 µM (inactive)"}, {"measurement": "GI50", "setting": "EKVX", "result": "> 100 µM (inactive)"}, {"measurement": "GI50", "setting": "TK-10", "result": "> 100 µM (inactive)"}, {"measurement": "GI50", "setting": "U-251", "result": "> 100 µM (inactive)"}, {"measurement": "GI50", "setting": "M14", "result": "> 100 µM (inactive)"}, {"measurement": "GI50", "setting": "SNB-75", "result": "37.6 µM (inactive)"}, {"measurement": "GI50", "setting": "HCT-15", "result": "> 100", "unit": "µM"}, {"measurement": "GI50", "setting": "NCI-H460", "result": "> 100 µM (inactive)"}, {"measurement": "GI50", "setting": "KM12", "result": "> 100 µM (inactive)"}, {"measurement": "GI50", "setting": "SR", "result": "> 100 µM (inactive)"}, {"measurement": "GI50", "setting": "SK-MEL-28", "result": "> 100 µM (inactive)"}, {"measurement": "GI50", "setting": "OVCAR-4", "result": "> 100 µM (inactive)"}, {"measurement": "GI50", "setting": "MOLT-4", "result": "> 100 µM (inactive)"}, {"measurement": "GI50", "setting": "DU-145", "result": "> 100 µM (inactive)"}, {"measurement": "GI50", "setting": "SN12C", "result": "> 100 µM (inactive)"}, {"measurement": "GI50", "setting": "OVCAR-8", "result": "> 100 µM (inactive)"}, {"measurement": "GI50", "setting": "HCT-116", "result": "> 100 µM (inactive)"}, {"measurement": "GI50", "setting": "SK-OV-3", "result": "> 100 µM (inactive)"}, {"measurement": "GI50", "setting": "UACC-257", "result": "> 100 µM (inactive)"}, {"measurement": "GI50", "setting": "NCI-H226", "result": "> 100 µM (inactive)"}, {"measurement": "GI50", "setting": "SF-268", "result": "> 100 µM (inactive)"}, {"measurement": "GI50", "setting": "HOP-92", "result": "36.6 µM (inactive)"}, {"measurement": "GI50", "setting": "MDA-MB-435", "result": "> 100 µM (inactive)"}, {"measurement": "GI50", "setting": "ACHN", "result": "> 100 µM (inactive)"}, {"measurement": "GI50", "setting": "Hs-578T", "result": "> 100 µM (inactive)"}, {"measurement": "GI50", "setting": "Malme-3M", "result": "> 100 µM (inactive)"}, {"measurement": "GI50", "setting": "UACC-62", "result": "> 100 µM (inactive)"}, {"measurement": "GI50", "setting": "SF-295", "result": "> 100 µM (inactive)"}, {"measurement": "GI50", "setting": "MDA-MB-231", "result": "> 100 µM (inactive)"}, {"measurement": "GI50", "setting": "COLO 205", "result": "> 100 µM (inactive)"}, {"measurement": "GI50", "setting": "IGROV-1", "result": "> 100 µM (inactive)"}, {"measurement": "GI50", "setting": "HOP-62", "result": "> 100 µM (inactive)"}, {"measurement": "GI50", "setting": "RPMI-8226", "result": "> 100 µM (inactive)"}, {"measurement": "GI50", "setting": "OVCAR-5", "result": "> 100 µM (inactive)"}, {"measurement": "GI50", "setting": "LOX IMVI", "result": "> 100 µM (inactive)"}, {"measurement": "GI50", "setting": "T47D", "result": "> 100 µM (inactive)"}, {"measurement": "GI50", "setting": "SK-MEL-2", "result": "> 100 µM (inactive)"}, {"measurement": "GI50", "setting": "HT-29", "result": "> 100 µM (inactive)"}, {"measurement": "GI50", "setting": "MCF7", "result": "> 100 µM (inactive)"}, {"measurement": "GI50", "setting": "HL-60", "result": "> 100 µM (inactive)"}, {"measurement": "GI50", "setting": "UO-31", "result": "> 100 µM (inactive)"}, {"measurement": "GI50", "setting": "NCI-H522", "result": "> 100 µM (inactive)"}]}
